Values of other authors in patent publication US10792281B2 (priority 2014, dated 2020).
Read-outs that look alike come from different tables or passages of the source.

Columns and labels:
[1] = in vivo
[2] = human, in vivo
[3] = tested on: nuclear factor kappa-B (NF-kB) and activator protein-1 (AP-1) activity
[4] = not given; remark: listed apart in the source

CC(C)(O)c1ccccc1CC[C@@H](SCC1(CC(=O)O)CC1)c1cccc(/C=C/c2ccc3ccc(Cl)cc3n2)c1 [montelukast]
time to peak plasma concentration [1]: 3 to 4 h | effect of food on oral bioavailability and Cmax ([1]; po): not affected by a standard meal | AUC range ([1]; po, 10 mg): 1521 to 4595 ng/h/mL | mean AUC ([1]; po, 10 mg): 2689 ng/h/mL | doses without clinically relevant side effects [2]: up to 200 mg/day | drug interactions ([2]; po): no drug interactions

CN(C)CCOC(c1ccccc1)c1ccccc1 [Diphenhydramine, diphenhydramine]
effect on AP-1 and NF-kB activity / RANTES production [3]: ineffective

Clc1ccc2c(c1)CCc1cccnc1C2=C1CCNCC1 [Desloratadine, desloratadine]
half-life (in vivo): 27 h | half-life (slow metabolizers): > 50 h

O=C(O)COCCN1CCN([C@H](c2ccccc2)c2ccc(Cl)cc2)CC1 [levocetirizine]
HRV-induced ICAM-1, cytokine expression, and viral replication (human rhinovirus (HRV); airway epithelial cells from both the nose and lung): inhibit | decrease of viral titers (human rhinovirus (HRV); in vitro, e.g. rhinovirus): 2 log | peak concentration ([4]; repeated 5 mg once daily oral dose): 308 ng/mL | peak concentration ([4]; single 5 mg oral dose): 270 ng/mL | doses that can be safely administered [2]: up to 30 mg/day

CN(c1nccc(=O)[nH]1)C1CCN(c2nc3ccccc3n2Cc2ccc(F)cc2)CC1 [mizolastine]
bioavailability (in vivo): high
